Laboratory results as given in BindingDB's records for doi:10.1111/j.1747-0285.2009.00842.x (Universita Degli Studi Di Firenze, 2009).

Key:
Carbonic anhydrase 7 = Carbonic anhydrase 7 (Homo sapiens, UniProt P43166); experiment: Inhibition Assay; conditions: pH 7.4; 25 °C
Carbonic anhydrase 2 = Carbonic anhydrase 2 (Homo sapiens, UniProt P00918); experiment: Inhibition Assay; conditions: pH 7.4; 25 °C

Chain of Carbonic anhydrase 7 (P43166 whole entry): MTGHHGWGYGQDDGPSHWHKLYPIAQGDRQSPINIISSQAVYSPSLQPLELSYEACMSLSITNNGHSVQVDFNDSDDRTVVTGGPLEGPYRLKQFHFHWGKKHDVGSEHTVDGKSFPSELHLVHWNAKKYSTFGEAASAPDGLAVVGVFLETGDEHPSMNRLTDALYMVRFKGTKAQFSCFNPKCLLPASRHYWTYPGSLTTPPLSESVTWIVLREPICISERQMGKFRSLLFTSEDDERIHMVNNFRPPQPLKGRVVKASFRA

Question: `CN(C)c1ccc(/N=N/c2ccc(S(N)(=O)=O)cc2)cc1` was tested. Which Ki (Carbonic anhydrase 7) did it give?
Answer: 30 nM

Question: With `NS(=O)(=O)c1ccc(I)cc1` [p-Halide-sulfanilamide derivative, 3] as the molecule, how does the Ki (Carbonic anhydrase 2) read?
Answer: 81 nM

Question: How did the Ki (Carbonic anhydrase 7) turn out when `COc1ccc(/N=N/c2ccc(S(=O)(=O)N(C)C)cc2)cc1` [p-Phenyldiazenyl derivative, 6] was run?
Answer: 4200 nM

Question: What about the Ki (Carbonic anhydrase 2) of the same molecule?
Answer: 863 nM

Question: `NS(=O)(=O)c1ccc(O)cc1` [p-Hydroxy-benzene derivative, 3a] was tested. Which Ki (Carbonic anhydrase 7) did it give?
Answer: 88 nM

Question: How did the Ki (Carbonic anhydrase 2) turn out when `NS(=O)(=O)c1ccc(Cl)cc1` [p-Halide-sulfanilamide derivative, 2] was run?
Answer: 17.5 nM

Question: Which Ki (Carbonic anhydrase 7) does the source give for `CN(C)S(=O)(=O)c1ccc(N=Nc2ccc(O)cc2)cc1` [p-Phenyldiazenyl derivative, 7] here?
Answer: 752 nM

Question: And the Ki (Carbonic anhydrase 2)?
Answer: 312 nM

Question: What does the source list for `CNS(=O)(=O)c1ccc(N=Nc2ccc(O)cc2)cc1` [p-Phenyldiazenyl derivative, 8]?
Answer: Ki (Carbonic anhydrase 7): 706 nM; Ki (Carbonic anhydrase 2): 277 nM

Question: For `NS(=O)(=O)c1ccc(Br)cc1` [p-Halide-sulfanilamide derivative, 2a], which Ki (Carbonic anhydrase 7) is on record?
Answer: 68 nM
